Experimental data published in patent US5709816A, “Singlet oxygen quenchers and external compositions containing the same” (Kao Corporation, priority 1899, dated 1998).

Columns and labels:
[1] = Quenching rate constant of singlet oxygen (Rose Bengal photosensitization, Stern-Volmer method); type: biochemical; details: kq; ethanol solution, 50 μM Rose Bengal; singlet oxygen lifetime taken as 10 μs
From the text: Method for measuring the quenching rate constant of singlet oxygen:
The apparatus used for measuring singlet oxygen included the following parts.
(1) Light source: Xenon lamp (150 W) (Atago Bussan K.K.)
(2) Filters on the excitation side: Water filter (optical path: 50 mm), Color glass filters (HA-15, HA-30, G-533, manufactured by Hoya K.K.)
(3) Sample: Square quartz cell (2×10×50 mm)
(4) Filters on the detection side: Color glass filter (IR-85, manufactured by Hoya K.K.), Interference filter (Nippon Shinku-Kogaku K.K.)
(5) Spectrometer and detector: Spectrometer (HR-320, Jovin Yvon Co.), Germanium (Ge) detector (EO-817L, a type using liquid nitrogen as a coolant, North coast Scientic Corporation)
(6) Amplifier: Light chopper (5584, NF Co.), Frequency filter (E-3201B, NF Co.), Super low noise amplifier (SA-200F3, NF Co.), Digital storage oscilloscope (2431L, SONY Tektronix Co.)
(7) Recording section: Personal computer (PC-9801 BA, NEC Corporation), GP-IB interface
(8) Oxygen concentration control unit: High-pressure oxygen cylinder
Using this apparatus, light was irradiated onto a system which is known to produce singlet oxygen through photochemical sensitization. The wavelength of the light was within an appropriate absorption range of the photosensitizer employed. weak emission in the near infrared region, which is specific to singlet oxygen, was measured for its intensity I. Subsequently, the emission obtained when a test substance was added to the same system was measured. From the decrease in emission intensity I, the quenching rate constant of singlet oxygen of the test substance could be measured in accordance with the Stern-Volmer method. However, since some substances react with the photochemical sensitization system to cause errors in the measurements, the method described by R. H. Young et al., Photochem. Photobiol., vol. 17, p. 233 (1973) was applied to correct this contribution quenching.
A 50 μM ethanol solution of Rose Bengal in a 400 μl square quartz cell was used as a test substance.
First, the light within 490-590 nm, which is appropriate for the maximum absorption wavelength of Rose Bengal, was irradiated onto the cell containing the test substance.
Similarly, another system was subjected to measurement in which a typical singlet oxygen quencher, β-carotene, sodium azide,or 1,4-diazabicyclo[2.2.2]octane, had been added.
Measurement of the quenching rate constant of singlet oxygen: An ethanol solution of each of compounds obtained in the above-described Synthesis Examples and N-phenyldiethanolamine (compound (36)), with Rose Bengal, as a conventional photosensitizer, was used for the measurement of the quenching rate constants of singlet oxygen.
First, emission intensity I of a mixture solution containing 50 μM of Rose Bengal and the above compounds were measured under saturated air conditions. The ratio IOair /Iair was calculated, wherein Iair represents the emission intensity measured for a solution with a test substance at a concentration of Cq (Iair), and Oair represents the emission intensity measured for a solution without test substance. Next, under saturated oxygen conditions, emission intensity was measured for a solution with a test substance at the same concentration Cq (I302). Using these emission intensities, the correction term Fair was obtained in accordance with the following equation.
Interference attributed to the test substance with respect to the photosensitization reaction system was corrected by multiplying IOair /Iair by Fair.
Using the following equation:
(IOair /Iair)'=1+kq ·.tau.·Cq

[2] = test system: skin of white guinea pigs; experiment: Inhibition of erythema formation (UV-A/UV-B irradiation); type: in vivo; details: Cavia porcellus, light or radiation study, topical; 5 wt. % in ethanol; UV-A/UV-B 40 J/cm^2; determined after 1 day and 2 days; read-out: Erythema inhibition rate
From the text: Inhibition of erythema formation
The hair of white guinea pigs (8 weeks old, female) hair was removed by shaving, and an ethanol solution containing a test substance (5 wt. %) was applied to the shaved part of each animal. A mixture of UV-A/UV-B (40 J/cm^2, measured at 365 nm using a UV-radiometer UVR-305/365-D, Torex Co.) was irradiated onto the back of each guinea pig using a solar simulator Model 1600 (Solar Light Co.). After 1 day and 2 days of irradiation, the erythema formation was visually determined by the standards of the Japanese Dermatological Association to obtain erythema inhibition ratios.

[3] = test system: dopachrome formation from dopa; experiment: Inhibition of immediate pigment darkening (dopachrome formation from dopa, porphyrin + UV); type: biochemical; details: 0.5 wt. % in ethanol; dopa 1 mM, porphyrin 5 mM; UV-A/UV-B 3 J/cm^2; absorption at 475 nm
Procedure: Inhibition of immediate pigment darkening
An ethanol solution containing a test substance (0.5 wt. %) was added to a mixture of dopa (1 mM) and porphyrin (5 mM). A mixture of UV-A/UV-B (3 J/cm^2, measured at 365 nm) was irradiated onto the resultant mixture using a solar simulator. The amount of dopachrome formed by irradiation was determined by measuring absorption at 475 nm.

collagen = experiment: Inhibition of protein denaturation (collagen crosslinking, porphyrin + UV); type: biochemical; details: 0.1 wt. % in ethanol; collagen 0.5 mg/ml, porphyrin 100 mM; UV-A/UV-B 3 J/cm^2; SDS-PAGE
Procedure: Inhibition of protein denaturation
An ethanol solution containing a test substance (0.1 wt. %) was added to a mixture of collagen (0.5 mg/ml) and 2 porphyrin (100 mM). A mixture of UV-A/UV-B (3 J/cm^2, measured at 365 nm) was irradiated onto the resultant mixture using a solar simulator. The irradiated mixture was applied to SDS-PAGE electrophoresis, and collagen crosslinking inhibition ratios were measured.

[4] = test system: cultured human fibroblasts; experiment: Inhibition of lipid peroxide formation in cultured human fibroblasts (TBA method); type: cell-based; details: Homo sapiens, Fibroblast, light or radiation study, 0.01 wt. % in ethanol, 100 mM porphyrin, UV-A/UV-B 1 J/cm^2, read-out: Inhibition ratio regarding lipid peroxide formation
Procedure: Inhibition of lipid peroxide formation
Cultured human fibroblasts were combined with 100 mM porphyrin and a test substance (0.01 wt. %, in ethanol). A mixture of UV-A/UV-B rays (1 J/cm^2, measurements performed at 365 nm) was irradiated onto the resultant cell culture using a solar simulator. The fibroblasts were collected after the trypsin treatment, then extracted hydrophobic substances using acetone. The extracted substances were dried under nitrogen to prepare cellular lipid samples. A TBA method was used to measure lipid peroxides in cells and inhibition ratio by a test substance.

[5] = test system: E. coli vector pUC119 DNA; type: biochemical; details: 0.01 wt. % in ethanol; 100 mM porphyrin; UV-A/UV-B 3 J/cm^2; agarose gel electrophoresis
Procedure: To a mixture of […] E. coli vector pUC119 DNA and 100 mM porphyrin, an ethanol solution containing a test substance (0.01 wt. %) was added. A mixture of UV-A/UV-B (3 J/cm^2, measured at 365 nm) was irradiated onto the resultant DNA mixture using a solar simulator. A 2.5-fold amount of ethanol and a 0.1-fold amount of 5M sodium acetate were added and the DNA was precipitated. The DNA pellet was dissolved in a TE buffer, and analyzed through agarose gel electrophoresis. Inhibition of DNA single strand breaks formation was measured.

SMILES | Extinction rate constant of singlet oxygen [1] [M⁻¹ s⁻¹] | inhibition in vivo at 5 % [2] [%] | Inhibition ratio regarding immediate blackening [3] [%] | Protein denaturation inhibition ratio (collagen) [%] | inhibition at 0.01 wt% [4] [%] | Prevention of DNA damage [5] [%]
CCCCN(CC(O)COC)c1ccccc1 (stereo not drawn) [Compound (6), N-n-butyl-N-(2-hydroxy-3-methoxypropyl)aniline] | 1.1e+08 | 37 | 53 | 53 | 40 | 47
COCC(O)CN(C)c1ccc(OC)cc1 (stereo not drawn) [Compound (1), N-(2-hydroxy-3-methoxypropyl)-N-methyl-p-anisidine] | 2.2e+08 | 68 | 71 | 85 | 51 | 69
CCCCCCCCN(CC(O)COC)c1ccc(OC)cc1 (stereo not drawn) [Compound (3), N-(2-hydroxy-3-methoxypropyl)-N-n-octyl-p-anisidine] | 2.3e+08 | 71 | 83 | 93 | 60 | 71
CCCCN(CC(O)COC)c1ccc(C)c(C)c1 (stereo not drawn) [Compound (32), N-n-butyl-N-(2-hydroxy-3-methoxypropyl)-3,4-xylidine] | 1.6e+08 | 53 | 56 | 88 | 54 | 61
CCCCCCCCN(CC(O)CO)c1ccc(OC)cc1 (stereo not drawn) [Compound (35), N-(2,3-dihydroxypropyl)-N-octyl-p-anisidine] | 2.2e+08 | 78 | 78 | 84 | 56 | 79
COCC(O)CN(CC(O)COC)c1ccc(C)cc1 (stereo not drawn) [Compound (4), N,N-bis(2-hydroxy-3-methoxypropyl)-p-toluidine] | 2.1e+08 | 69 | 76 | 87 | 57 | 69
CCCCN(CC(O)COC)c1ccc(OC)cc1 (stereo not drawn) [Compound (2), N-n-butyl-N-(2-hydroxy-3-methoxypropyl)-p-anisidine] | 2e+08 | 42 | 57 | 62 | 43 | 50
Cc1ccc(N(C)CC(O)CO)cc1 (stereo not drawn) [Compound (33), N-(2,3-dihydroxypropyl)-N-methyl-p-toluidine] | 1.4e+08 | 43 | 67 | 44 | 47 | 48
CCCCN(CC(O)COC)c1ccc(C)cc1 (stereo not drawn) [Compound (5), N-n-butyl-N-(2-hydroxy-3-methoxypropyl)-p-toluidine] | 1.5e+08 | 65 | 65 | 81 | 48 | 66
CCCCN(CC(O)CO)c1ccc(C)c(C)c1 (stereo not drawn) [Compound (34), N-n-butyl-N-(2,3-dihydroxypropyl)-3,4-xylidine] | 1.7e+08 | 65 | 63 | 61 | 52 | 64
